Reference: patent US20030049712A1, “Method of detecting protease activity in a cell” (priority 2001, published 2003)

Tested on: caspase-3
Assay: Caspase3 assay using an NES-protease cleavage-NLS fusion protein (EYFP translocation)
Format: cell-based
Settings: 3T3 cells transiently transfected with pCaspase3-sensor Vector; staurosporin 700 nM; detected 4 hours post induction; untreated cells: EYFP in the cytoplasm
From the text: A construct was generated that includes a nucleotide sequence encoding a fusion protein including, in order from amino to carboxyl terminus, an NES of MAP-kinase-kinase (NLVDLQKKLEELELDEQQ; SEQ ID NO: 23); a recognition site for caspase-3 (DEVD; SEQ ID NO: 22) bordered by a stretch of amino acids found in the cleavage site of the endogenous caspase-3 substrate poly (ADP-ribose) polymerase (PARP; Nicholson et al. (1995) Nature 376:37-43; and Tewari et al. (1995) Cell 81:801-809), such that the cleavage recognition site has the sequence KRKGDEVDGVDF (SEQ ID NO: 24); an enhanced yellow fluorescent protein (EYFP); and a three tandem repeat of the NLS from simian virus large T antigen. In this construct, the NES is dominant over the NLS.
The construct was transfected into mammalian cells. Specifically, 3T3 cells were grown on coverslips, transiently transfected with the pCaspase3-sensor Vector which is encodes the above described fusion protein and is further illustrated in Clontechniques (April, 2002), and grown for 24 hours. Apoptosis was induced using staurosporin (700 nM) and caspase-3 activity was detected 4 hours post induction. Cells were fixed with 3% paraformaldehyde and photomicrographs were taken using a Zeiss microscope.

Structure (SMILES): CN[C@@H]1C[C@H]2O[C@@](C)([C@@H]1OC)n1c3ccccc3c3c4c(c5c6ccccc6n2c5c31)C(=O)NC4 [staurosporin]
- caspase-3 activity read out as subcellular location of EYFP: the EYFP was detected in the nucleus
